Measured values as given in PubChem BioAssay AID179 (DTP/NCI, 2004).
The source made the active and inactive calls.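 The calls were made as follows: active = compounds giving half or more protection of infected cells from virus-caused growth loss, again on retest; inactive = the rest.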 Where a SMILES comes first, the peptide text is derived from it. The star is where a group is joined. Boc = CC(C)(C)OC(=O)*; tBu = CC(C)(C)*

System: CEM cells HIV-1 protection, formazan growth assay
Assay: NCI AIDS Antiviral Assay
Details: for IC50: measured here: growth of uninfected CEM cells
Summary of the method: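 Soluble formazan readout of cell growth; CEM cells ± HIV-1; 5 drug concs. ≥50% protection → retest; ≥50% again = moderately active; reproducible 100% = confirmed active.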

Row | SMILES | EC50 [µM] | IC50 [µM] | outcome
1 | C/C(=N\NC(N)=O)c1cc2cc([N+](=O)[O-])ccc2oc1=O | > 70.8 | > 70.8 | 
2 | O=C1c2cccnc2-c2nccc3c2c1nc1cc(Br)ccc13 | > 2.69 | 0.132 | 
3 | O=C1Cn2c(cc(=O)c3ccccc32)O1 | > 67.6 | > 67.6 | 
4 | Cc1cc2c(C(C)C)c(O)c(O)c(C=Nc3cccc(O)c3)c2c(O)c1-c1c(C)cc2c(C(C)C)c(O)c(O)c(C=Nc3cccc(O)c3)c2c1O |  | 8.13 | inactive
5 | C1CC[N-]CC1.Oc1ccccc1C=NCCN=Cc1ccccc1O.[Co] | > 200 | 15.5 | 
6 | O=c1nc(Oc2ccccc2)nc2cnccn12 | > 372 | 145 | 
7 | N#C/C(=C/N1C(=O)/C(=C/c2ccc([N+](=O)[O-])cc2)SC1=S)C(N)=O | > 200 | 16.2 | 
8 | C#CCn1c(I)cc2c(c1=O)COC(=O)[C@]2(O)CC | > 200 | > 200 | 
9 | C=C1c2nc3ccccc3n2C=C(c2ccc(C)cc2)N1c1ccc(OC)cc1 | > 200 | 11.5 | 
10 | COC(=O)c1ccccc1NC(=O)C(=O)NNC(=O)c1ccncc1 | > 275 | > 275 | 
11 | N#C/C(=C\N1CC(=O)NC1=S)C(=O)c1ccc2ccccc2c1 | > 200 | 158 | 
12 | COc1ccc(N=c2ssc3c(=S)ssc23)cc1 |  |  | inactive
13 | OCC1CC(F)C(n2cnc3c(Br)ncnc32)O1 (stereo not drawn) | > 158 | 27.5 | 
14 | NC(=S)/N=C(/c1nc2ccc(Cl)cc2[nH]c1=O)C(O)c1ccccc1Cl (stereo not drawn) | > 617 | 589 | 
15 | CNc1ccc(C=C2C=CC=C2)cc1 | > 74.1 | 39.8 | 
16 | C(C[P+](c1ccccc1)(c1ccccc1)c1ccccc1)=C(c1ccccc1)c1ccccc1 | > 200 | 1.05 | 
17 | COC(=O)c1cc2cc3c(c(O)c2c(=O)o1)O[C@@]1(Oc2c(O)c4c(c(O)c2[C@H]1OC1CC(OC)C(O)C(C)O1)C(=O)C=C(OC)C4=O)[C@H](O)C3 (stereo partly drawn) | > 200 | 3.31 | 
18 | Cc1ccccc1-c1c(N)nc(N)nc1C(=O)Nc1nccs1 | > 41.7 | > 41.7 | 
19 | CCOC(=O)C1/C(=N/N)CN2CCc3c([nH]c4ccccc34)C12C(=O)OCC (stereo not drawn) | > 158 | 145 | 
20 | Cc1nnc2sc(C(=O)O)nn12 | > 200 | > 200 | 
21 | C[N+](C)(C)CC(=O)N/N=C(\C(=O)Nc1ccc(Cl)cc1)C1C(=O)N(c2ccccc2)N=C1N (stereo not drawn) | > 17.8 | > 17.8 | 
22 | CC1CNC2(c3ccccc3)CSC=C(c3ccccc3)N12 (stereo not drawn) | > 200 | 117 | 

Row | SMILES | EC50 [µM] | IC50 [µM] | outcome
23 | Cc1ccccc1-n1c(=S)n(-c2ccccn2)c2nc3ccccc3nc1/c2=N/Nc1ccccn1 | > 162 |  | 
24 | CC1C(=O)N2C(=O)C(C)C(C)C(=O)N2C(=O)C1C (stereo not drawn) | > 53.7 | > 53.7 | 
25 | O=c1oc2ccc(O)cc2c2ccccc12 | > 170 | 38 | 
26 | O=[p+]1c2ccccc2[nH]c2ccccc21 | > 200 | 56.2 | 
27 | CC1=C(C#N)C(=O)N(/N=C/c2ccc(Cl)cc2)C(=O)/C1=c1\o/c(=C2/C(=O)N(/N=C/c3ccc(Cl)cc3)C(=O)C(C#N)=C2C)c2nccnc12 | > 200 | 110 | 
28 | Oc1c(C(O)c2ccccn2)ccc2ccccc12 (stereo not drawn) | > 200 | 36.3 | 
29 | O=C(OCc1ccccc1)N1CCNCCNCC1 | > 200 | > 200 | 
30 | COc1ccc2nc3ccc(OC)cc3c(SCCCl)c2c1 |  |  | inactive
31 | CC1CCCN2C(=O)CN(CCc3ccccc3)CC(=O)N12 (stereo not drawn) |  |  | inactive
32 | CCC1(NC(=O)CN)C(=O)NC(=O)NC1=O | > 200 | > 200 | 
33 | O=S1(=O)C(c2cccc(F)c2)=C(O)c2cc3ccccc3nc21 |  |  | inactive
34 | CCOP(=O)(OCC)/C(C#N)=C/c1ccc(Cl)cc1 | > 316 | 195 | 
35 | Oc1ccc2c(c1)-c1c(c3cc(O)ccc3n1CCN1CCOCC1)CC2 |  |  | inactive
36 | CCOC1C(CC/C=C\c2ccccc2)CCCCN1C(=O)OC(C)(C)C (stereo not drawn) | > 251 | > 251 | 
37 | CN(C)c1ccc(/C=C(/C(=O)c2ccccc2)c2ccccc2)cc1 | > 15.8 | > 15.8 | 
38 | O=C1NC(=O)C(CCSSCCC2NC(=O)NC2=O)N1 (stereo not drawn) | > 200 | > 200 | 
39 | O=c1[nH]nc(-c2ccccc2)n1/N=C/c1ccccc1Cl | > 200 | 74.1 | 
40 | CCOC(=O)CC1(O)C(=O)N(Cc2ccccc2)c2ccccc21 (stereo not drawn) | > 200 | > 200 | 
41 | NNC(=O)C(=O)N/N=C(\CCCC(=O)Nc1ccc(Cl)cc1)CC(=O)c1ccc(F)cc1 | > 269 | > 269 | 
42 | Cc1cccc(/C=C2\CCCCCC2=O)c1 | > 200 | 53.7 | 
43 | Nc1ncnc2c1ncn2CC(O)C(=O)O (stereo not drawn) |  |  | inactive
44 | O=C(c1ccc(O)c([N+](=O)[O-])c1)c1ccc(O)c([N+](=O)[O-])c1 | > 200 | 45.7 | 

Row | SMILES | EC50 [µM] | IC50 [µM] | outcome
45 | CC(OC(C)(C)C)C(NC(=O)C(N)CCCCNC(=O)OC(C)(C)C)C(=O)NC(Cc1ccccc1)C(=O)O (stereo not drawn) (H-Lys(Boc)-Thr(tBu)-Phe-OH; configuration not given here) | > 200 | > 200 | 
46 | CN(C)Cc1cc(N=Nc2ccccc2Cl)cc(CN(C)C)c1O | > 200 | 93.3 | 
47 | Cc1csc2n(C)c(=O)c3ccccc3[n+]12 | 191 | > 200 | 
48 | O=C(CC(=O)c1cccc([N+](=O)[O-])c1)C(=O)Nc1ccccc1 | > 417 | > 417 | 
49 | N#C/C(=C\n1c(=S)[nH]c2ccc([N+](=O)[O-])cc21)C(=O)c1ccc2ccccc2c1 | > 200 | > 200 | 
50 | COCn1c(C)c(C)c2c(=O)oc(=O)[nH]c21 | > 200 | > 200 | 
51 | C=CCn1nnc2ccccc2c1=O | > 692 | > 692 | 
52 | CC[C@@H]1CC2CN3CCc4c([nH]c5cc(OC)c(OC)cc45)C(C(=O)OC)(C2)C13 (stereo partly drawn) |  |  | inactive
53 | O=S(=O)(O)c1cc(N=[N+]([O-])c2cc(S(=O)(=O)O)c3ccccc3c2)cc2ccccc12 | > 200 | 93.3 | 
54 | N=C(N)/N=C(/C=C/c1ccccc1)CC1OC(=O)c2ccccc21 (stereo not drawn) | > 42.7 | > 42.7 | 
55 | COC(=O)CC(C(C(=O)OCc1ccccc1)C(C)O)N1C(=O)OCC1c1ccccc1 (stereo not drawn) | > 200 | 123 | 
56 | O=C(Nc1nc2ccc([N+](=O)[O-])cc2s1)C(=O)C(C(=O)c1ccncc1)C1OC(=O)c2ccccc21 (stereo not drawn) | > 186 | 102 | 
57 | CCCCN(CCCC)C(=O)/C(CC(=O)c1cccc2ccccc12)=N\NC(=O)c1cc2ccccc2cc1O | > 34.7 | 16.2 | 
58 | CCCCS(=N)(=O)CC[C@H](N)C(=O)O (stereo partly drawn) | > 562 | 214 | 
59 | Fc1ccccc1C1CC(C(c2ccccc2)c2ccccc2)=Nc2ccccc2S1 (stereo not drawn) | > 6.46 | > 6.46 | 
60 | CCc1c(N=[N+]=[N-])c2ccccc2oc1=O |  |  | inactive
61 | O=C(O)/C=C/c1ccc(O)c(O)c1 | > 1380 | 66.1 | 
62 | C=C1C(=O)OC2C[C@H](C)C3CC(=O)C(C)=C3CC12 (stereo partly drawn) | > 380 | 6.61 | 
63 | N#CCCN(CCC#N)c1ccc(/C=C2\N=C(c3cc([N+](=O)[O-])ccc3Cl)OC2=O)cc1 | > 2.34 | 0.575 | 
64 | O=c1[nH]c(-n2[nH]c3c(c2=O)CCCC3)nc(O)c1-c1ccccc1 | > 200 | > 200 | 
65 | CCOC(=O)CC(C#N)(CC(=O)OCC)C(=O)OCC |  |  | inactive
66 | C#CC1(O)C(CO)OC(n2ccc(=O)[nH]c2=O)C1O[Si](C)(C)C(C)(C)C (stereo not drawn) | > 200 | 27.5 | 

Row | SMILES | EC50 [µM] | IC50 [µM] | outcome
67 | O=C(CC(=O)N1N=C(N2CCCCC2)CC1c1ccccc1)Nc1ccccc1 (stereo not drawn) | > 200 | > 200 | 
68 | CC(C)(C)C(=O)O/C=C\OC1CCCC1(c1ccccc1)c1ccccc1 (stereo not drawn) | > 200 | 9.55 | 
69 | COC1(C)C(=O)N2C1N(C(=O)OC(C)(C)C)CC2(C)C (stereo not drawn) | > 380 | > 380 | 
70 | O=C(CSCc1cc(S(=O)(=O)O)c2cccnc2c1O)Nc1ccc(/C=C/c2ccc(NC(=O)CSCc3cc(S(=O)(=O)O)c4cccnc4c3O)cc2S(=O)(=O)O)c(S(=O)(=O)O)c1 | > 200 | > 200 | 
71 | CCOC(=O)c1ccc(N2C(=O)c3cccc4cccc(c34)C2=O)c([N+](=O)[O-])c1 | > 100 | 37.2 | 
72 | O=c1oc2cc(O)ccc2c(O)c1C(c1ccc(C(c2c(O)c3ccc(O)cc3oc2=O)c2c(O)c3ccc(O)cc3oc2=O)cc1)c1c(O)c2ccc(O)cc2oc1=O | > 200 | 91.2 | 
73 | Nc1ccc(N=Nc2ccc(-c3ccc(N=Nc4c(S(=O)(=O)O)cc5cc(S(=O)(=O)O)c(N=Nc6ccc([N+](=O)[O-])cc6)c(N)c5c4O)cc3)cc2)c2cc(S(=O)(=O)O)ccc12 | > 19.5 | > 19.5 | 
74 | O=C(O)C1[S][Bi]([S]C(C(=O)O)C([S][Bi]2[S]C(C(=O)O)C(C(=O)O)[S]2)C(=O)O)[S]C1C(=O)O (stereo not drawn) | > 1.32 | > 1.32 | 
75 | NC(N)=NC(N)=Nc1cccc(S(=O)(=O)c2cccc(N=C(N)N=C(N)N)c2)c1 | 126 | > 200 | 
76 | O=S(=O)(O)c1ccc2cc(N=Nc3cc(S(=O)(=O)O)c4cccnc4c3O)ccc2c1 | 24 | > 100 | 
77 | CCOC(=O)C(CC(C(=O)OCC)C(=O)OCC)C(=O)OCC |  |  | inactive
78 | CC1(C)O[C@H](C(=O)O)[C@@H](C(=O)O)O1 | > 200 | > 200 | 
79 | CCOc1ccc(Nc2nc(N)nc(N)c2N=O)cc1 | > 151 | 15.8 | 
80 | O=C(NNC(=O)c1ccncc1)c1ccncc1 | > 200 | > 200 | 
81 | CNCCS(=O)(=O)O | > 200 | > 200 | 
82 | COC(=O)C1=C2Nc3ccccc3[C@@]23CCN(Cc2ccccc2)C3CC1[C@@H]1COC(C)(C)O1 (stereo partly drawn) | > 100 | 51.3 | 
83 | O=C1CCCC/C1=C\c1ccc(Cl)c(Cl)c1 |  |  | inactive
84 | CC1CC(NN(C)C)=C(C#N)C1(C#N)C#N (stereo not drawn) | > 200 | 11.7 | 
85 | Cc1cc2c3c(c1)S(=O)(=O)c1cc(Cl)ccc1N3CCC2 | > 200 | > 200 | 
